Consider 3 compounds from PMC8066102, “Metabolic Profiles of New Unsymmetrical Bisacridine Antitumor Agents in Electrochemical and Enzymatic Noncellular Systems and in Tumor Cells” (Pharmaceuticals, 2021).

Holding throughout (format): in vitro ADME
Data set [1] addresses T1, UGT 1A10 (Homo sapiens, UniProt Q9HAW8).
T1 construct: His tag; purchased Corning, NY, USA (through DIAG-MED, Poland); host or cells: baculovirus-insect cells (Supersomes); Results say Sf9 cells
T1 sequence (Q9HAW8 26-530): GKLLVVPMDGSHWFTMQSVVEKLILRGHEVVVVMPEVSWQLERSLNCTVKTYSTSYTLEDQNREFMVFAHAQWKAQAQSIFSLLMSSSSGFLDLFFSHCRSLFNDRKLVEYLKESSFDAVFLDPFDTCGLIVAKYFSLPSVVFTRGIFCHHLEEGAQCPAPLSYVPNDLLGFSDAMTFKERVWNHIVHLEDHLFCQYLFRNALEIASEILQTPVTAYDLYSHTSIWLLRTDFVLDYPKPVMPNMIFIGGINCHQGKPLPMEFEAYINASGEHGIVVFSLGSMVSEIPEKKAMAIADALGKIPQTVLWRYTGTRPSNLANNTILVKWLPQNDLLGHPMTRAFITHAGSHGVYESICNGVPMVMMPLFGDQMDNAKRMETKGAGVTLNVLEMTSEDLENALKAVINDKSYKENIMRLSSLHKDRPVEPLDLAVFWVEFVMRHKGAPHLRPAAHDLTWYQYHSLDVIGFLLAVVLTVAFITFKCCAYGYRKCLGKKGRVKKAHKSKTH
Briefly: Glucuronidation with recombinant UGT1A10. The settings on record: 0.05 mM compound; for Glucuronidation potency UGT 1A10: 1 mg/mL UGT, 5 mM UDPGA. On the set-up: key to Glucuronidation potency UGT 1A10: −: the lack of UGT activity; +: the significant UGT activity. On the procedure: (§1) Recombinant UGT isoform protein (1 mg/mL) was assayed for activity toward tested UAs as follows. The proteins were incubated in a buffer containing 0.1 M HEPES (pH 7.4), 8 mM MgCl2 and alamethicin (25 μg/mL) with either 0.05 mM substrate in total volume 70 µL (alamethicin was added to permeabilize the membrane). Substrates were also in buffer HEPES, pH 7.4. Reactions were started by the addition of UDPGA (5 mM) and were incubated for specified time at 37 °C. The reactions were stopped by the addition of 8.75 µL of 1 M HCl, followed by centrifugation at 13400 rpm for 10 min to pellet the denatured protein. The supernatant fractions were used for HPLC analysis. Control reactions omitting substrate were run with each assay. All incubations were performed in two repetitions.

Data set [2] deals with T2, UGT 2B4 (Homo sapiens, UniProt P06133).
T2 construct: purchased Corning, NY, USA (through DIAG-MED, Poland); host or cells: baculovirus-insect cells (Supersomes)
T2 sequence (P06133 24-528): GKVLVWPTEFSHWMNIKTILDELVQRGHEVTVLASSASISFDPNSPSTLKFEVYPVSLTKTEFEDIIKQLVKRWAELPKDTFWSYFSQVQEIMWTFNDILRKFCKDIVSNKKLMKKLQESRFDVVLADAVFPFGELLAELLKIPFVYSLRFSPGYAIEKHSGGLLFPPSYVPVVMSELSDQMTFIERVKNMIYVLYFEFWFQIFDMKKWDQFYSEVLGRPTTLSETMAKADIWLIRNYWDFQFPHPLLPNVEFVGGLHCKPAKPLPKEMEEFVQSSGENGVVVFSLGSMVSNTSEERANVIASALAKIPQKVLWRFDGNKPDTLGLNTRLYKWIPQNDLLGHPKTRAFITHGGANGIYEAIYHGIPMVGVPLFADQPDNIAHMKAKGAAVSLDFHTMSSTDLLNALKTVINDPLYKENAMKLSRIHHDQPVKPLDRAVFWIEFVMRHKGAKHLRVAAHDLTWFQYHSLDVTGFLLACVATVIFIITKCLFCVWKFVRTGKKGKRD
Briefly: Glucuronidation with recombinant UGT2B4. Also noted: key: −: the lack of UGT activity; +: the significant UGT activity. The conditions noted are these: 0.05 mM compound, 1 mg/mL UGT, 5 mM UDPGA. Here is the method: as §1

In data set [3] the target is T3, UGT 2B17 (Homo sapiens, UniProt O75795).
T3 construct: purchased Corning, NY, USA (through DIAG-MED, Poland); host or cells: baculovirus-insect cells (Supersomes)
T3 sequence (O75795 24-530): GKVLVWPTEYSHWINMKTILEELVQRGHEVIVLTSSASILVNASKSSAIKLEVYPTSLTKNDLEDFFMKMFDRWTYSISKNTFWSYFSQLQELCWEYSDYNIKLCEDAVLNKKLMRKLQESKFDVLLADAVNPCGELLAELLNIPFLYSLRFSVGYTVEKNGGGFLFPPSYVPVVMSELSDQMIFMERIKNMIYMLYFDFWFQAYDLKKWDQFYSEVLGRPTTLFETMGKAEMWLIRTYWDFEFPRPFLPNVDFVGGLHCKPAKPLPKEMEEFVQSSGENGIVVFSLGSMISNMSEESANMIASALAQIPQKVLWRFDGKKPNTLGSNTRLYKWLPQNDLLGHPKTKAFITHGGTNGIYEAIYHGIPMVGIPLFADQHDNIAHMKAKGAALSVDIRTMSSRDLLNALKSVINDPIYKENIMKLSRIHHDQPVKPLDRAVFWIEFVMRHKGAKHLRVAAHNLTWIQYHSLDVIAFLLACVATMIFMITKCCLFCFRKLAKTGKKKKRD
Briefly: Glucuronidation with recombinant UGT2B17. Also noted: key: −: the lack of UGT activity; +: the significant UGT activity. The conditions noted are these: 0.05 mM compound, 1 mg/mL UGT, 5 mM UDPGA. Here is the method:
as §1

Data set [4] concerns the target T4, UGT1A1 (Homo sapiens, UniProt P22309).
T4 sequence (P22309 26-533): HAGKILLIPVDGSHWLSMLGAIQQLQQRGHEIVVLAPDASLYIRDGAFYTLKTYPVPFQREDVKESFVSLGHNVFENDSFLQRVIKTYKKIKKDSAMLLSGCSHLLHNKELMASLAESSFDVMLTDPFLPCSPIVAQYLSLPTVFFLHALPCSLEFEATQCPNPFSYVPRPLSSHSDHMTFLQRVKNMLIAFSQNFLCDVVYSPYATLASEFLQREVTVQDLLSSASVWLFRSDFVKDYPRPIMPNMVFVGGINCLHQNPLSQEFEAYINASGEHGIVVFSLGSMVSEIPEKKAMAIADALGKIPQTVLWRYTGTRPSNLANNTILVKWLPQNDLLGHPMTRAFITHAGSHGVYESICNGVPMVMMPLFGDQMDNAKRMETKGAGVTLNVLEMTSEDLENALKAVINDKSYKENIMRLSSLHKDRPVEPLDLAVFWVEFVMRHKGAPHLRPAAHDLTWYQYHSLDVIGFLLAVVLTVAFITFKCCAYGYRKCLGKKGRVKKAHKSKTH
Briefly: Glucuronidation with recombinant UGT1A1. On the set-up: His tag; purchased Corning, NY, USA (through DIAG-MED, Poland); host or cells: baculovirus-insect cells (Supersomes); Results say Sf9 cells; key: −: the lack of UGT activity; +: the significant UGT activity. The settings on record: 0.05 mM compound, 1 mg/mL UGT, 5 mM UDPGA. Here is the method:
as §1

Structures are written as SMILES.

Consider `Cc1ccc([N+](=O)[O-])c2c(NCCCN(C)CCCNc3ccc4ncn5c6ccccc6c(=O)c3c45)c3ccccc3nc12` [C-2053], for which the “Glucuronidation potency UGT 1A10” value in data set [1] was “−”. Also, the “Glucuronidation potency UGT 2B4” value in data set [2] is “−”. Also, the “Glucuronidation potency UGT 2B17” value in data set [3] is given as “−”. For the same compound, the “Glucuronidation potency UGT 1A1” value in data set [4] was “−”.

For the compound `Cc1ccc([N+](=O)[O-])c2c(NCCCN(C)CCCNc3ccc4ncn5c6ccc(O)cc6c(=O)c3c45)c3ccccc3nc12` [C-2045], in data set [1] (1 mg/mL UGT1A10, 5 mM UDPGA, 120 min), the “rate of metabolism (glucuronidation) with UGT1A10” value is 18%. Also, in data set [1], the “Glucuronidation potency UGT 1A10” value was “+”. For the same compound, the “Glucuronidation potency UGT 2B4” value in data set [2] is given as “−”. Further, the “Glucuronidation potency UGT 2B17” value in data set [3] is given as “−”. In addition, the “Glucuronidation potency UGT 1A1” value in data set [4] is on record as “+”.

Take `CN(CCCNc1c2ccccc2nc2cccc([N+](=O)[O-])c12)CCCNc1ccc2ncn3c4ccccc4c(=O)c1c23` [C-2028]: in data set [1], the “Glucuronidation potency UGT 1A10” value is on record as “−”. In data set [2], the “Glucuronidation potency UGT 2B4” value is listed as “−”. In data set [3], the “Glucuronidation potency UGT 2B17” value is on record as “−”. The “Glucuronidation potency UGT 1A1” value in data set [4] is given as “−”.
